Measurements as given in US7541193B2, “Caged sensors, regulators and compounds and uses thereof” (Panomics, Inc., priority 2002, dated 2009).

Tests used:
[1] = test system: PKC; experiment: photoactivated in vitro PKC assay initiated by uncaging caged ATP; assay type: biochemical; conditions: exposed to 365 nm UV lamp for 10 min; excitation 485 nm, emission 535 nm
Experimental: FIG. 34 is a line graph depicting the results of a photoactivated PKC assay using caged ATP and a PKC sensor. […] Reactions were read on a fluorescent microtiter plate reader with excitation at 485 nm and emission at 535 nm.
FIG. 33 (see, also, FIG. 23) illustrates the activation of an in vitro PKC assay after exposure to 365 nm light. All components were mixed together in a 96-well microtiter plate. The plate was exposed to a 365 nm UV lamp for 10 min (step 3301) and immediately placed into a fluorescent microtiter plate reader for detection. The light-activated compound is DMNPE-caged ATP. […] See, e.g., McCray and Trentham (1989) “Properties and Uses of Photoreactive Caged Compounds” Annu Rev Biophys Biophys Chem 18:239 for a description of the caged ATP. The PKC probes and reaction set-up are based on Yeh et al. (2002) “Real time visualization of protein kinase activity in living cells” J Biol Chem 277: 11527-11532, with the replacement of normal ATP by DMNPE-caged ATP.

[2] = biological target: PKC enzyme; experiment: in vitro biochemical PKC assay with PKC sensor (not caged); conditions: 1 mM ATP, 1 μM PKC sensor (not caged), 22 nM PKC enzyme; read-out: IC-50 determined in an in vitro biochemical assay
[3] = test system: protein kinase C (PKC); experiment: in vivo IC-50 determination with photolabile caged PKC sensor in living HeLa cells; assay type: cell-based; conditions: HeLa cells transfected with 10 μM caged PKC sensor; 30 min inhibitor incubation; uncaging 1 J/cm^2 365 nm; 1 μM PMA; read-out: IC-50 determined in vivo
Experimental: The caged PKC sensor was transfected into the cells at a concentration of 10 μM, as follows. To 37.5 μl serum-free DMEM, 2.5 μl Profect P-2 and then 10 μl of caged PKC sensor (diluted to 500 μM in PBS) were added. The reagents were mixed gently and incubated for 30 minutes at room temperature. The DMEM was removed from the well containing the HeLa cells, and the cells were washed once with PBS. After addition of 450 μl serum-free DMEM to the Profect P-2-caged sensor complex, 50 μl of the complex was added to each well. The HeLa cells were incubated with the complex at 37° C. for 2 h (or optionally longer, with the addition of fresh DMEM). To uncage the caged PKC sensor, cells were exposed from beneath the plate to 1 J/cm^2 365 nm UV light. Uncaging light was produced by a BlueWave ™ UV Spot Light System fitted with a Lightguide mount assembly, Cool Blue™ filter, and Lightguide rod lens assembly (Dymax Corp., on the internet at dymax.com, part numbers 38600, 38670, and 38699). […] Fluorescent signal from the PKC sensor was read on an Acumen Explorer™ microplate reader.
Cells containing the caged sensor were incubated with 4-fold dilutions of GF109203X for 30 min before the cells were exposed to uncaging light (1 J/cm^2, 365 nm) and treated with 1 μM PMA. Fluorescent signal from the PKC sensor was read on an Acumen Explorer™ microplate reader. […]

Row | SMILES | signal response (relative fluorescence) of PKC reaction [1] | IC50 [2] [nM] | IC50 [3] [nM]
1 | COc1cc(C(C)OP(=O)(O)OP(=O)(O)OP(=O)(O)OCC2OC(n3cnc4c(N)ncnc43)C(O)C2O)c([N+](=O)[O-])cc1OC (stereo not drawn) [DMNPE-caged ATP] | exhibits signal response similar to the reaction with normal ATP |  | 
2 | CN(C)CCCn1cc(C2=C(c3c[nH]c4ccccc34)C(=O)NC2=O)c2ccccc21 [GF109203X] |  | 1100 | 1600
